# Structures can show the parent of a compound that is named as a salt. Numbered stars: 1 amine (or outer) side, 2 acyl side, 3 side chain; on linkers, the order of the positions; unused ones are H or OH. Bridge positions count the residues as written; N and C are the ends. Square brackets hold non-standard residues; d marks the D form. Peptide text beside a SMILES is read from it. I, II: the chains in the order shown. Actinocin(9to1) = Cc1c2oc3c(C)ccc(C(=O)[*:1])c3nc-2c(C(=O)[*:2])c(N)c1=O; NMeV = CN[C@H](C(=O)O)C(C)C; Sar = CNCC(=O)O
# Test system: U87-MG spheroids
# Assay: High throughput kinetic oxygen screen of FDA-approved anticancer drugs on U87-MG micro-tumors with embedded oxygen sensors, 384-well plate
# Format: cell-based, human
# Conditions: 5 μM; U87-MG cells embedded in collagen gel or basement membrane gel
# Method: In general, cells were kept under standard conditions in a humidified incubator at 37° C., under 5% CO2. U87-MG cells (obtained from the American Type Culture Collection (ATCC)) were cultured in Eagle's Minimum Essential Medium (EMEM) (ATCC® 30-2003™) supplemented with 15% (volume/volume) fetal bovine serum (FCS), 100 U/mL penicillin, and 100 μg/mL streptomycin (Sigma-Aldrich). Medium was changed every 2 days and cells were split every 5 days. Patient's specific glioblastoma derived cells (obtained from Cleveland clinic) were cultured in Neurobasal™ Medium (Trademark Serial number: 77137832) minus phenol red (Thermo-Fischer Scientific) supplemented with 1× (volume/volume) B27 minus Vitamin A (Thermo-Fischer Scientific), 10 ng/ml basic fibroblast growth factor (bFGF) 10 ng/ml EGF (epidermal growth factor) (PEPROTECH), 100 U/mL penicillin, 100 μg/mL streptomycin (Sigma-Aldrich) and L-Alanyl-L-Glutamine (Biological Industries). Medium was changed every 3 days and cells were split every 2-3 weeks. Rat retinal capillary endothelial cells (RCECs) were cultured in EGM™-2 Endothelial Cell Growth Medium-2 BulletKit™ (Lonza). Medium was changed every 3 days and cells were split every 6 days.
# For tumor organoid formation, cancer cells were cultured to reach the adequate number needed for a 384 well plate. Cells were trypsinized, counted, and centrifuged at 300 g for 5 minutes at 4° C. The pellet was then mixed with 5 mg CPOx-50-RuP oxygen-sensing beads (Colibri Photonics) and resuspended in 800 μl of ice-cold solution of collagen type I (BD Biosciences) or Matrigel® Basement Membrane Matrix, Growth Factor Reduced (GFR) (Corning) for a final seeding density of 25-50×10^6 cells/mL. In some cases, endothelial cells (RCECs) are used in the assembly of the tumor spheroids by mixing them with same or double the number of tumor cells (i.e. 1:1 or 1:2 ratios) before centrifugation. The 800 μl mix was then equally distributed into a PCR strip (100 μl/tube) and passed to a Biomek i5 liquid handling workstation (Beckman Coulter) for the formation of uniformly-sized organoid in 384-well plate. The plate was then incubated for 30 minutes at 37° C., and the medium was replaced using the liquid handing workstation. Medium was changed every two days for 4 days before adding the drugs (5 μM of NIH chemotherapeutic drugs in triplicates per drug).
# On the day of measurement, medium was changed 2-12 hours before drug induction, based on the oxygen consumption of the microtissue (e.g., U87-MG spheroids are given 6 hours after media change before drugs are induced).
# After applying the drugs, the plate was placed on the DynamiX bioanalyzer (Tissue Dynamics). Organoids positions were detected optically. Oxygen content was monitored at a predetermined rate of 1 to 10 seconds of measurement at each location (e.g. Matrigel®/U87-MG spheroids treated with a set of FDA-approved anticancer drugs to enable cancer research was measured via phosphorescence for 4 seconds/well). Each cycle takes between 10-120 minutes, dependent on sampling rate and well number (e.g., Matrigel®/U87-MG spheroids 384 well at a sampling rate of 4 measurements/well take about 60 minutes for each cycle). […]
# Further validation was usually done by multiple independent repeats (e.g. Matrigel®/U87-MG spheroids treated with a set of FDA-approved anticancer drugs to enable cancer research [AOD IX] were assessed in 3 independent experiments). […]
row,Structure (SMILES),"type of response in kinetic oxygen measurement (positive, false negative, false positive)"
1,Cc1c(C(=O)Nc2ccc(N3C[C@@H](C)O[C@@H](C)C3)nc2)cccc1-c1ccc(OC(F)(F)F)cc1 [Erismodegib],false positive
2,"Cc1c2oc3c(C)ccc(C(=O)N[C@@H]4C(=O)N[C@H](C(C)C)C(=O)N5CCC[C@H]5C(=O)N(C)CC(=O)N(C)[C@@H](C(C)C)C(=O)O[C@@H]4C)c3nc-2c(C(=O)N[C@@H]2C(=O)N[C@H](C(C)C)C(=O)N3CCC[C@H]3C(=O)N(C)CC(=O)N(C)[C@@H](C(C)C)C(=O)O[C@@H]2C)c(N)c1=O [Dactinomycin] (I: T[dV]P[Sar][NMeV] / II: T[dV]P[Sar][NMeV]; ester I:1-I:C, II:1-II:C; linker I:N-II:N via Actinocin(9to1))",false positive
3,CC(C)C[C@H](NC(=O)[C@H](Cc1ccccc1)NC(=O)c1cnccn1)B(O)O [Bortezomib],positive
4,COc1cccc2c1C(=O)c1c(O)c3c(c(O)c1C2=O)C[C@@](O)(C(C)=O)C[C@@H]3O[C@H]1C[C@H](N)[C@H](O)[C@H](C)O1 [Daunorubicin hydrochloride],false negative
5,COC(=O)C[C@](O)(CCCC(C)(C)O)C(=O)O[C@@H]1C(OC)=C[C@]23CCCN2CCc2cc4c(cc2[C@H]13)OCO4 [Omacetaxine mepesuccinate],positive
